15 molecules from BindingDB's records for doi:10.1016/j.ejmech.2019.03.019 (Csic - Universidad De Zaragoza, 2019) can be followed below.

In general, EC50 refers to the midpoint of the concentration-response curve.

This test can be described thus: Inhibition of NS5B RNA dependent RNA polymerase in HCV 1b Con1 infected in human Huh5-2 cells assessed as reduction in viral RNA replication measured after 3 days by luciferase reporter gene assay. (In general: Reporter assays use an easily measured gene product as a stand-in for the process of interest.)

Each structure is given as a SMILES string.

With `C=CCOC[C@H]1[C@@H](COC)C[C@@](CC(C)C)(C(=O)O)N1C(=O)c1ccc(C(C)(C)C)c(OC)c1`, the EC50 worked out at 7.5 µM.
Consider `COC[C@H]1C[C@@](CC(C)C)(C(=O)O)N(C(=O)c2ccc(C(C)(C)C)c(OC)c2)[C@H]1[C@H]1COC(C)(C)O1`, for which the half-maximal effective concentration (EC50) amounted to 60 µM.
In the case of `COC[C@H]1C[C@@](CC(C)C)(C(=O)O)N(C(=O)c2ccc(C(C)(C)C)c(OC)c2)[C@H]1[C@H]1COC(=O)O1`, the 50% effective concentration (EC50) was found to be 2 µM.
With `COC[C@H]1C[C@@](CC(C)C)(C(=O)O)N(C(=O)c2ccc(C(C)(C)C)c(OC)c2)[C@H]1C(N)=O` the figure was 2 µM.
The value for `COC[C@H]1C[C@@](CC(C)C)(C(=O)O)N(C(=O)c2ccc(C(C)(C)C)c(OC)c2)[C@@H]1c1nccs1` was 15 µM; that for `CC[C@H]1[C@@H](COC)C[C@@](CC(C)C)(C(=O)O)N1C(=O)c1ccc(C(C)(C)C)c(OC)c1` was 40 µM; that for `COC[C@H]1C[C@@](CC(C)C)(C(=O)O)N(C(=O)c2ccc(C(C)(C)C)c(OC)c2)[C@H]1C(=O)OC` was 7 µM.
In the case of `COC[C@H]1C[C@@](CC(C)C)(C(=O)O)N(C(=O)c2ccc(C(C)(C)C)c(OC)c2)[C@H]1COC(C)=O`, the EC50 was determined as 30 µM.
In the case of `COC[C@H]1C[C@@](CC(C)C)(C(=O)O)N(C(=O)c2ccc(C(C)(C)C)c(OC)c2)[C@H]1COC`, the 50% effective concentration (EC50) came to 0.6 µM.
Take `COC[C@H]1C[C@@](CC(C)C)(C(=O)O)N(C(=O)c2ccc(C(C)(C)C)c(OC)c2)[C@H]1CN=[N+]=[N-]`: the 50% effective concentration (EC50) is 100 µM.
Consider `COC[C@H]1C[C@@](CC(C)C)(C(=O)O)N(C(=O)c2ccc(C(C)(C)C)c(OC)c2)[C@H]1c1nccs1`, for which the EC50 is 0.1 µM.
With `COC[C@H]1C[C@@](CC(C)C)(C(=O)O)N(C(=O)c2ccc(C(C)(C)C)c(OC)c2)[C@H]1CF`, the concentration giving a half-maximal response (EC50) was 45 µM.
For `COC[C@H]1C[C@@](CC(C)C)(C(=O)O)N(C(=O)c2ccc(C(C)(C)C)c(OC)c2)[C@H]1CNC(C)=O`, the 50% effective concentration (EC50) was 15 µM.
As for `CCOC(=O)c1csc([C@H]2[C@@H](COC)C[C@@](CC(C)C)(C(=O)O)N2C(=O)c2ccc(C(C)(C)C)c(OC)c2)n1`, the 50% effective concentration (EC50) was 60 µM.
`COC[C@H]1C[C@@](CC(C)C)(C(=O)O)N(C(=O)c2ccc(C(C)(C)C)c(OC)c2)[C@H]1COC(=O)OC`: the concentration for a half-maximal effect (EC50) worked out at 30 µM.
